From PMC11449324, “Functional comparison of human and murine equilibrative nucleobase transporter 1” (PLOS ONE, 2024)

What was measured:
[1] = target: T1, endogenous ENBT1 expressed in L1210 cells (Mus musculus, UniProt A2AVZ9); assay: [3H]6-MP uptake in L1210 cells; assay type: cell-based, murine; conditions: 30 μM [3H]6-MP
T1 construct: MOLT-4 cells express the SLC43A3 transcript and L1210 cells express the slc43a3 transcript; host or cells: L1210
T1 sequence (A2AVZ9 1-502): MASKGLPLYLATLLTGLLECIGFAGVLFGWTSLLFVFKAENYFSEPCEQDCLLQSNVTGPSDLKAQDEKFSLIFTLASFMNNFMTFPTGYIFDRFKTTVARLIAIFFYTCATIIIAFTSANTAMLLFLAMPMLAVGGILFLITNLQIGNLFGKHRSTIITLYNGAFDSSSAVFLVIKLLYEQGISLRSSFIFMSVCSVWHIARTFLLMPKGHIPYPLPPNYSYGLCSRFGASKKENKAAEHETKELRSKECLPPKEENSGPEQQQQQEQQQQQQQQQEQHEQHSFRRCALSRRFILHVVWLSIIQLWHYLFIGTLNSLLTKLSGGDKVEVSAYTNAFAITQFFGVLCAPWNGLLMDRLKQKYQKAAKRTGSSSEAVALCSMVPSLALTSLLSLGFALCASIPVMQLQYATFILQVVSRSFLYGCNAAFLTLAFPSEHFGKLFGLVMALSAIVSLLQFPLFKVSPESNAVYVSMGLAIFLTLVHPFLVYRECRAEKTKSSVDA
Description: (§1) Harvested cells were suspended in nominally sodium-free N-methyl-D-glucamine (NMG) buffer (140 mM NMG, 5 mM KCl, 4.2 mM KHCO3, 0.36 mM K2HPO4, 0.44 mM KH2PO4, 0.5 mM MgCl2, 1.3 mM CaCl2, 10 mM HEPES, pH 7.4), to minimize potential contribution of sodium-dependent concentrative nucleoside transporter-mediated uptake. Additionally, cells were incubated for 15 minutes at room temperature with 10 μM dipyridamole (DY), an equilibrative nucleoside transporter (ENT) inhibitor, to block equilibrative nucleoside transporter–mediated uptake. The substrate uptake assay was initiated by adding 250 μL cell suspension to 250 μL [^3H] labeled substrate, layered over 21:4 silicone:mineral oil (200 μL) in 1.5 mL microcentrifuge tubes (conducted at room temperature). […] This is the minimum incubation time achievable with this oil-stop technique, and it was found in previous studies that these short incubation times were necessary to assess the kinetics of this transporter. […] The resulting cell pellet was digested in 250 μL 1 M NaOH overnight (~16 hours), with 220 μL aliquots of digested cells assessed for radioactive content using standard liquid scintillation counting techniques in a Beckman Coulter LS6500 scintillation system (Brea, CA).
(§2) In transfected-HEK293 cell lines, total uptake was defined as uptake of radiolabeled substrate in cells overexpressing recombinant hENBT1 or mENBT1. […] ENBT1-mediated uptake was calculated as total uptake minus the non-mediated uptake.
(§3) Cell water volume (μL) was estimated by incubating cells with ^3H2O for 3 minutes, centrifuging the cells through the oil layer at ~10,000 g, assessing 100 μL of the supernatant for radioactive content, and then processing as described above. Total cellular water volume was determined from the ratio of the decays per minute of the cell pellet, to the decays per minute of the supernatant, allowing for inter-experimental normalization via calculation of picomoles of substrate accumulated per microliter of cell-associated water.

[2] = target: T2, endogenous ENBT1 expressed in MOLT-4 cells (Homo sapiens, UniProt Q8NBI5); assay: [3H]6-MP uptake in MOLT-4 cells; assay type: cell-based; conditions: 30 μM [3H]6-MP
T2 construct: MOLT-4 cells express the SLC43A3 transcript and L1210 cells express the slc43a3 transcript; host or cells: MOLT-4
T2 sequence (Q8NBI5 1-491): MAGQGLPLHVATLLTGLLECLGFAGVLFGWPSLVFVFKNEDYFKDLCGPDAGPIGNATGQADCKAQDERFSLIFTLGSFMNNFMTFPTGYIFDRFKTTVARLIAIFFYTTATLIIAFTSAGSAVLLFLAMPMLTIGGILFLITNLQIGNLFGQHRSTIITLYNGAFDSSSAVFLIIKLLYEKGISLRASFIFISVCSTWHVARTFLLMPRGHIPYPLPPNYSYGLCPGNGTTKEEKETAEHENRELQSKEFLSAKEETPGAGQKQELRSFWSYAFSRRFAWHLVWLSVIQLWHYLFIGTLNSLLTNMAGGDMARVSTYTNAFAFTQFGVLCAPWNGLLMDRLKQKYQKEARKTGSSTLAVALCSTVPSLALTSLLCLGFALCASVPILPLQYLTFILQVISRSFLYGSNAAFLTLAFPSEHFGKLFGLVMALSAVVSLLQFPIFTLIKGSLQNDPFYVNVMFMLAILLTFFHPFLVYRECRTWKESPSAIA
Description: as §1, §2, §3

| SMILES | k value of time-dependent uptake [1] [s⁻¹] | uptake plateau [1] | k value of time-dependent uptake [2] [s⁻¹] | uptake plateau [2] | effect on uptake of [3H]6-MP ([1]; 5 mM adenine) | effect on uptake of [3H]6-MP ([2]; 5 mM adenine) |
| --- | --- | --- | --- | --- | --- | --- |
| Sc1ncnc2nc[nH]c12 [6-MP, 6-Mercaptopurine] | 0.22 ± 0.05 | roughly 30 pmol/μL | 0.34 ± 0.09 | roughly 30 pmol/μL | – | – |
| Nc1ncnc2[nH]cnc12 [adenine, Adenine] | – | – | – | – | significantly inhibited | significantly inhibited |
